# Tests used:
# [1] = physchem; conditions: oil or lipid, thermodynamic from solid, Dubcare GPE 810 ®/(Tween 80 ®/PEG 600)
# Experimental: (§1) In order to investigate drug solubility in SMEDDS, excess amount of drug was added to few mL of each excipient, placed in small bottles and the mixture was vortexed, in room temperature to facilitate solubilization.
# The solubility of Dubcare GPR 810® in different oil/(S/CS) was tested. […] The S/CS ration was kept constant at 1/1.
# [2] = physchem; conditions: thermodynamic from solid
# Experimental: The solubility is calculated by the API quantity dissolved in 5 mL of each excipient.
# [3] = cited from earlier work
# [4] = physchem; conditions: thermodynamic from solid; remark: listed apart in the source
# Experimental: as §1
# Tween 80® and Tween 20® were used as surfactants, Transcutol® along with PG 200 and PEG 600 were used as co-surfactants.
compound,measurement,setting,value
OCCOc1ccc(/C(=C(/CCCl)c2ccccc2)c2ccccc2)cc1 [Ospemifene],solubility,"[1]; ratio oil/(S/CS) 1:9, S/CS 1/1",160 mg/mL
same,solubility,"[1]; ratio oil/(S/CS) 2:8, S/CS 1/1",150 mg/mL
same,solubility,"[1]; ratio oil/(S/CS) 3:7, S/CS 1/1",150 mg/mL
same,solubility,"[1]; ratio oil/(S/CS) 7:3, S/CS 1/1",80 mg/mL
same,solubility,"[1]; ratio oil/(S/CS) 8:2, S/CS 1/1",60 mg/mL
same,solubility,"[2]; Castor oil #1 (neat excipient), oil or lipid, in Castor oil #1, room temperature",60 mg/mL
same,solubility,"[2]; Castor oil #2 (neat excipient), oil or lipid, in Castor oil #2, room temperature",60 mg/mL
same,solubility,"[2]; Dubcare GPE 810 (neat excipient), organic solvent or mixture, in Dubcare GPE 810 ®, room temperature",180 mg/mL
same,solubility,"[2]; Ethyl Oleate (neat excipient), oil or lipid, in Ethyl Oleate, room temperature",20 mg/mL
same,solubility,"[2]; Isopropyl myristate (neat excipient), oil or lipid, in Isopropyl myristate, room temperature",150 mg/mL
same,solubility,"[2]; Labrafac Lipophile (neat excipient), oil or lipid, in Labrafac Lipophile ®, room temperature",100 mg/mL
same,solubility,"[2]; Miglyol 812 (neat excipient), oil or lipid, in Miglyol 812, room temperature",60 mg/mL
same,solubility,"[2]; Oleic acid (neat excipient), oil or lipid, in Oleic acid, room temperature",10 mg/mL
same,solubility,"[2]; Propylene glycol (neat excipient), organic solvent or mixture, in Propylene glycol, room temperature",50 mg/mL
same,solubility,"[2]; Sesame oil (neat excipient), oil or lipid, in Sesame oil, room temperature",60 mg/mL
same,solubility,"[2]; Transcutol (neat excipient), organic solvent or mixture, in Transcutol ®, room temperature",280 mg/mL
same,solubility,"[2]; Tween 20 (neat excipient), organic solvent or mixture, in Tween 20 ®, room temperature",150 mg/mL
same,solubility,"[2]; Tween 80 (neat excipient), organic solvent or mixture, in Tween 80 ®, room temperature",100 mg/mL
same,solubility,"[2]; Tyloxapol (neat excipient), organic solvent or mixture, in Tyloxapol, room temperature",140 mg/mL
same,solubility,"[2]; organic solvent or mixture, in Kolliphpor ® RH40, room temperature",180 mg/mL
same,solubility,"[2]; organic solvent or mixture, in PG 200, room temperature",100 mg/mL
same,solubility,"[2]; organic solvent or mixture, in PG 600, room temperature",160 mg/mL
same,Time to peak median serum concentration,[3]; fasting postmenopausal women,approximately two
same,Increase of bioavailability with food intake,"[3]; with food intake, EP1713458",two- to three
same,solubility,"[4]; organic solvent or mixture, Tween 20 ®/Transcutol ®, ratio S/CS 1:1",210 mg/mL
same,solubility,"[4]; organic solvent or mixture, Tween 20 ®/Transcutol ®, ratio S/CS 1:2",240 mg/mL
same,solubility,"[4]; organic solvent or mixture, Tween 20 ®/Transcutol ®, ratio S/CS 2:1",190 mg/mL
same,solubility,"[4]; surfactant/co-surfactant mixture Tween 20/PG 200, S/CS 1:1, organic solvent or mixture, Tween 20 ®/PG 200, ratio S/CS 1:1",110 mg/mL
same,solubility,"[4]; surfactant/co-surfactant mixture Tween 20/PG 200, S/CS 1:2, organic solvent or mixture, Tween 20 ®/PG 200, ratio S/CS 1:2",120 mg/mL
same,solubility,"[4]; surfactant/co-surfactant mixture Tween 20/PG 200, S/CS 2:1, organic solvent or mixture, Tween 20 ®/PG 200, ratio S/CS 2:1",120 mg/mL
same,solubility,"[4]; surfactant/co-surfactant mixture Tween 20/PG 600, S/CS 1:1, organic solvent or mixture, Tween 20 ®/PG 600, ratio S/CS 1:1",140 mg/mL
same,solubility,"[4]; surfactant/co-surfactant mixture Tween 20/PG 600, S/CS 1:2, organic solvent or mixture, Tween 20 ®/PG 600, ratio S/CS 1:2",140 mg/mL
same,solubility,"[4]; surfactant/co-surfactant mixture Tween 20/PG 600, S/CS 2:1, organic solvent or mixture, Tween 20 ®/PG 600, ratio S/CS 2:1",140 mg/mL
same,solubility,"[4]; surfactant/co-surfactant mixture Tween 80/PEG 600, S/CS 1:1, organic solvent or mixture, Tween 80 ®/PEG 600, ratio S/CS 1:1",140 mg/mL
same,solubility,"[4]; surfactant/co-surfactant mixture Tween 80/PEG 600, S/CS 1:2, organic solvent or mixture, Tween 80 ®/PEG 600, ratio S/CS 1:2",120 mg/mL
same,solubility,"[4]; surfactant/co-surfactant mixture Tween 80/PEG 600, S/CS 2:1, organic solvent or mixture, Tween 80 ®/PEG 600, ratio S/CS 2:1",140 mg/mL
